Measured values published in BindingDB's records for doi:10.1002/1439-7633(20010504)2 (University of NeuchÂTel, 2001).

Target: T1, Delta-aminolevulinic acid dehydratase (Escherichia coli (strain K12), UniProt P0ACB2)
T1 sequence (P0ACB2 whole entry): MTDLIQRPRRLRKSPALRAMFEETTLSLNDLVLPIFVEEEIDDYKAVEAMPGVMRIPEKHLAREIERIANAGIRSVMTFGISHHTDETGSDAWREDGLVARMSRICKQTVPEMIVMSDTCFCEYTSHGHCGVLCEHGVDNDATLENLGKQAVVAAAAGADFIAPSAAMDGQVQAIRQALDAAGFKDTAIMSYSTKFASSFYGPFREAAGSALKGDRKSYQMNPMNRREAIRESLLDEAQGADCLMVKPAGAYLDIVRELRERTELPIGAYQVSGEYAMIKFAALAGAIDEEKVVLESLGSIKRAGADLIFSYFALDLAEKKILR
Test: PBGS Assay
Settings: pH 8.1; 37 °C
Excerpt: The PBGS assay is a colorimetric assay based on the reaction between PBG and 4-dimethylaminobenzaldehyde (Ehrlich's reagent).

| Compound | Ki [mM] |
| --- | --- |
| CC(=O)CCC(=O)O [Substrate analogue, 8] | 2.2 |
| O=C(O)CCC(=O)CF [Substrate analogue, 9] | 0.085 |
| COC(=O)CCC(=O)O [Substrate analogue, 10] | 38.4 |
| CNC(=O)CCC(=O)O [Substrate analogue, 12] | 36.4 |
| CC(=O)OCC(=O)O [Substrate analogue, 13] | 24.5 |
| NCC(=O)OCC(=O)O [Substrate analogue, 14] | 18.2 |
| CC(=O)NCC(=O)O [Substrate analogue, 15] | 18.8 |
| CC(=O)CC[N+](=O)[O-] [Substrate analogue, 17] | 0.028 |
| O=C(CF)CC[N+](=O)[O-] [Substrate analogue, 18] | 0.021 |
| COC(=O)CC[N+](=O)[O-] [Substrate analogue, 19] | 1.88 |
| O=C(O)CC[N+](=O)[O-] [Substrate analogue, 20] | 44.9 |
| COC(=O)CCC(=O)NCC(=O)CCC(=O)O [Substrate analogue, 24] | 0.243 |
| COC(=O)CCC(=O)NCC(=O)CC[N+](=O)[O-] [Substrate analogue, 28] | 0.02 |
| O=C(O)CCC(=O)CCCCC[N+](=O)[O-] [Substrate analogue, 31] | 4.9 |
| O=C(O)CCCCNC(=O)CCC(=O)O [Substrate analogue, 32] | 22.9 |
| O=C(O)CCCCNC(=O)CC[N+](=O)[O-] [Substrate analogue, 33] | 18.2 |
| O=C(O)CCC(=O)O [Succinic acid, 6] | 12.5 |
